{
  "source": "paper PMC7175962",
  "about": "(Journal of medicinal chemistry, 2019)",
  "key": {"NDM-1": {"molecular_target": "NDM-1 (Klebsiella pneumoniae, UniProt C7C422)", "sequence (C7C422 29-270, looked up)": "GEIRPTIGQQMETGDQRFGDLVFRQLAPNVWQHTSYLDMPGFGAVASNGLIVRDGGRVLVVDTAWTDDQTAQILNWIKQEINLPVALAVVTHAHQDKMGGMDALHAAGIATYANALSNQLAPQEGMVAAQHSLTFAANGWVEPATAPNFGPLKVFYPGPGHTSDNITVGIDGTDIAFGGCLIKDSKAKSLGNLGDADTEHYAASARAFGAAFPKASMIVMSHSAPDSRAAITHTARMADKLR", "test": "NDM-1 inhibition, nitrocefin hydrolysis assay", "type": "biochemical"}, "KPC-2": {"molecular_target": "KPC-2 (Klebsiella pneumoniae, UniProt Q9F663)", "sequence (Q9F663 25-293, looked up)": "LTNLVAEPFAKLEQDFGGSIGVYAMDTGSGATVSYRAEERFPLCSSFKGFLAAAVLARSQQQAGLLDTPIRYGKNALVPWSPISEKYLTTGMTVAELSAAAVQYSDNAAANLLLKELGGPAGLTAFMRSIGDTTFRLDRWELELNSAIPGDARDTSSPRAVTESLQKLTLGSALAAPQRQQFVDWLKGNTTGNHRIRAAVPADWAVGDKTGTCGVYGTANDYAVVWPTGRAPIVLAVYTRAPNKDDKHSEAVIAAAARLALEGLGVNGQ", "type": "biochemical"}, "VIM-2": {"molecular_target": "VIM-2 (Pseudomonas aeruginosa, UniProt Q9K2N0)", "test": "VIM-2 inhibition, nitrocefin hydrolysis assay", "type": "biochemical", "conditions": "VIM-2 versus NDM-1"}, "[1]": {"tested_on": "K. pneumoniae C2 (KPC-2), clinical strain", "test": "Checkerboard assay, imipenem plus inhibitor", "type": "cell-based"}, "[2]": {"tested_on": "P. aeruginosa 4129 (NDM-1), lacking efflux pumps", "test": "Checkerboard assay, imipenem plus inhibitor", "type": "cell-based"}, "[3]": {"tested_on": "P. aeruginosa(eflx+) 4177 (NDM-1)", "test": "Checkerboard assay, imipenem plus inhibitor", "type": "cell-based"}, "[4]": {"tested_on": "P. aeruginosa 4882 (VIM-2), lacking efflux pumps", "test": "Checkerboard assay, imipenem plus inhibitor", "type": "cell-based"}, "[5]": {"test": "Kinetic solubility in pH 7.4 PBS", "type": "physicochemical"}, "[6]": {"tested_on": "Gram-negative pathogens (all strains)", "test": "Antibacterial activity of inhibitors alone", "type": "cell-based", "conditions": "for antibacterial effects by itself, without imipenem: 128 μg/mL; for MIC: read-out: MIC of compound tested alone"}, "E. coli 5980 (NDM-1)": {"tested_on": "E. coli 5980 (NDM-1)", "test": "MIC of imipenem in combination with inhibitor", "type": "cell-based", "conditions": "for reduction of imipenem MIC: compound at 128 μg/mL, NDM-1 producing E. coli"}, "[7]": {"tested_on": "K. pneumoniae 5979 (NDM-1)", "test": "MIC of imipenem in combination with inhibitor", "type": "cell-based", "conditions": "for reduction of imipenem MIC: compound at 128 μg/mL, NDM-1 producing K. pneumoniae"}, "E. cloacae 5981 (NDM-1)": {"tested_on": "E. cloacae 5981 (NDM-1)", "test": "MIC of imipenem in combination with inhibitor", "type": "cell-based", "conditions": "for reduction of imipenem MIC: compound at 128 μg/mL, NDM-1 producing E. cloacae"}, "[8]": {"tested_on": "P. aeruginosa 4698 (VIM-2)", "test": "MIC of imipenem in combination with inhibitor", "type": "cell-based"}, "[9]": {"tested_on": "K. pneumoniae 4683 (KPC-2)", "test": "MIC of imipenem in combination with inhibitor", "type": "cell-based", "conditions": "Klebsiella pneumoniae, read-out: MIC of imipenem"}, "[10]": {"tested_on": "P. aeruginosa 4135 (KPC-2), lacking efflux pumps", "test": "Checkerboard assay, imipenem plus inhibitor", "type": "cell-based", "conditions": "Pseudomonas aeruginosa, read-out: MIC of imipenem"}, "[11]": {"tested_on": "P. aeruginosa(eflx+) 4402 (VIM-2)", "test": "Checkerboard assay, imipenem plus inhibitor", "type": "cell-based", "conditions": "Pseudomonas aeruginosa, read-out: MIC of imipenem"}, "[12]": {"tested_on": "P. aeruginosa 4173 (vector)", "test": "MIC of imipenem, vector control strain", "type": "cell-based", "conditions": "Pseudomonas aeruginosa, read-out: MIC of imipenem"}, "[13]": {"tested_on": "P. aeruginosa(eflx+) 4175 (vector)", "test": "MIC of imipenem, vector control strain", "type": "cell-based", "conditions": "Pseudomonas aeruginosa, read-out: MIC of imipenem"}, "[14]": {"conditions": "Klebsiella pneumoniae, read-out: MIC of imipenem"}, "[15]": {"conditions": "Pseudomonas aeruginosa, read-out: MIC of imipenem"}},
  "data": [
    {"smiles": "O=c1cc(CP(=O)(O)O)c2c(F)cc(F)cc2o1", "note": "[Compound 8, [(5,7-difluoro-2-oxo-2H-chromen-4-yl)methyl]phosphonic acid]", "values": [
      {"measurement": "Ki (NDM-1)", "setting": "NDM-1; nitrocefin substrate, 37 °C, pH 7.2, 50 μM zinc sulfate", "result": "did not show inhibition"},
      {"measurement": "NDM-1 inhibition after pre-incubation of the compound with NDM-1", "setting": "NDM-1; pre-incubation, data not shown", "result": "weak inhibitory activity"}
    ]},
    {"smiles": "O=c1cc(CP(=O)(O)O)c2c(Br)cc(Br)cc2[nH]1", "note": "[Compound 16, [(5,7-dibromo-2-oxo-1,2-dihydroquinolin-4-yl)methyl]phosphonic acid]", "values": [
      {"measurement": "increase in activity on replacing C7-Me in 9 by -Br (KPC-2)", "setting": "KPC-2; relative to compound 9", "result": "~ 12 fold"},
      {"measurement": "activity improved over the parent DHQ analog 11 (KPC-2)", "setting": "KPC-2; relative to compound 11", "result": "~ 7,000 fold"},
      {"measurement": "higher affinity for VIM-2 than NDM-1", "setting": "VIM-2", "result": "~ 100 x"},
      {"measurement": "MIC of imipenem in the presence of 16", "setting": "[1]; 16 at 16 μg/mL", "result": 16, "unit": "µg/mL"},
      {"measurement": "reduction of imipenem MIC", "setting": "[2]; 16 at 128 μg/mL", "result": 16, "unit": "fold"},
      {"measurement": "decrease in potency by overexpressing efflux pumps, against NDM-1", "setting": "[3]; eflx+ versus efflux-deleted strain", "result": "up to 4 fold"},
      {"measurement": "reduction of imipenem MIC", "setting": "[4]; 16 at 128 μg/mL, maximum observable", "result": 16, "unit": "fold"},
      {"measurement": "solubility kinetic", "setting": "[5]", "result": 95.9, "unit": "µg/mL"},
      {"measurement": "antibacterial effects by itself, without imipenem", "setting": "[6]", "result": "neither 9 nor 16 showed any antibacterial effects"}
    ]},
    {"smiles": "O=P(O)(O)Cc1ccnc2ccccc12", "note": "[Compound 15, [(quinolin-4-yl)methyl]phosphonic acid]", "values": [
      {"measurement": "potencies and ligand efficiencies inferior to DHQ comparator 11 (KPC-2)", "setting": "KPC-2; relative to compound 11", "result": "2–5 times"}
    ]},
    {"smiles": "O=c1cc(CP(=O)(O)O)c2ccccc2[nH]1", "note": "[Compound 11, [(2-oxo-1,2-dihydroquinolin-4-yl)methyl]phosphonic acid]", "values": [
      {"measurement": "reduction of imipenem MIC", "setting": "E. coli 5980 (NDM-1)", "result": "little if any effect"},
      {"measurement": "reduction of imipenem MIC", "setting": "[7]", "result": "little if any effect"},
      {"measurement": "reduction of imipenem MIC", "setting": "E. cloacae 5981 (NDM-1)", "result": "little if any effect"},
      {"measurement": "MIC of imipenem in the presence of compound", "setting": "[8]; compound at 128 μg/mL", "result": ">64", "unit": "µg/mL"},
      {"measurement": "MIC", "setting": "[6]", "result": "> 128", "unit": "µg/mL"}
    ]},
    {"smiles": "Cc1cc(C)c2c(CP(=O)(O)O)cc(=O)[nH]c2c1", "note": "[Compound 13, [(5,7-dimethyl-2-oxo-1,2-dihydroquinolin-4-yl)methyl]phosphonic acid]", "values": [
      {"measurement": "reduction of imipenem MIC", "setting": "E. coli 5980 (NDM-1)", "result": 4, "unit": "fold"},
      {"measurement": "reduction of imipenem MIC", "setting": "[7]", "result": "unable to rescue imipenem activity"},
      {"measurement": "reduction of imipenem MIC", "setting": "E. cloacae 5981 (NDM-1)", "result": "unable to rescue imipenem activity"},
      {"measurement": "MIC of imipenem in the presence of compound", "setting": "[8]; compound at 128 μg/mL", "result": ">64", "unit": "µg/mL"},
      {"measurement": "reduction of imipenem MIC", "setting": "[8]; compound at 128 μg/mL, VIM-2 producing P. aeruginosa", "result": "unable to rescue imipenem activity"},
      {"measurement": "solubility kinetic", "setting": "[5]", "result": 51.6, "unit": "µg/mL"},
      {"measurement": "MIC", "setting": "[6]", "result": "> 128", "unit": "µg/mL"}
    ]},
    {"smiles": "NC(=O)[C@@H]1CC[C@@H]2CN1C(=O)N2OS(=O)(=O)O", "note": "[avibactam]", "values": [
      {"measurement": "MIC of imipenem in the presence of avibactam", "setting": "[1]; avibactam at 16 μg/mL", "result": 1, "unit": "µg/mL"},
      {"measurement": "reduction of imipenem MIC", "setting": "[1]; inhibitor at 16 μg/mL", "result": 512, "unit": "fold"}
    ]},
    {"smiles": "Cc1cc(Br)c2c(CP(=O)(O)O)cc(=O)oc2c1", "note": "[Compound 9, [(5-bromo-7-methyl-2-oxo-2H-chromen-4-yl)methyl]phosphonic acid]", "values": [
      {"measurement": "reduction of imipenem MIC", "setting": "E. coli 5980 (NDM-1)", "result": 4, "unit": "fold"},
      {"measurement": "reduction of imipenem MIC", "setting": "[7]", "result": "more than 2 fold"},
      {"measurement": "reduction of imipenem MIC", "setting": "E. cloacae 5981 (NDM-1)", "result": "did not have any activity"},
      {"measurement": "antibacterial effects by itself, without imipenem", "setting": "[6]", "result": "neither 9 nor 16 showed any antibacterial effects"},
      {"measurement": "MIC", "setting": "[6]", "result": "> 128", "unit": "µg/mL"}
    ]},
    {"smiles": "C[C@@H](O)[C@H]1C(=O)N2C(C(=O)O)=C(SCCN=CN)C[C@H]12", "note": "[Imipenem, imipenem, reference compound]", "values": [
      {"measurement": "MIC", "setting": "E. coli 5980 (NDM-1); Escherichia coli, read-out: MIC of imipenem", "result": 8, "unit": "µg/mL"},
      {"measurement": "MIC", "setting": "[9]", "result": 64, "unit": "µg/mL"},
      {"measurement": "MIC", "setting": "[7]; [14]", "result": "> 64", "unit": "µg/mL"},
      {"measurement": "MIC", "setting": "E. cloacae 5981 (NDM-1); Enterobacter cloacae, read-out: MIC of imipenem", "result": 2, "unit": "µg/mL"},
      {"measurement": "MIC", "setting": "[8]; [15]", "result": "> 64", "unit": "µg/mL"},
      {"measurement": "MIC", "setting": "[1]; [14]", "result": 512, "unit": "µg/mL"},
      {"measurement": "MIC", "setting": "[10]", "result": 64, "unit": "µg/mL"},
      {"measurement": "MIC", "setting": "[2]; [15]", "result": 128, "unit": "µg/mL"},
      {"measurement": "MIC", "setting": "[3]; [15]", "result": 128, "unit": "µg/mL"},
      {"measurement": "MIC", "setting": "[4]; [15]", "result": 32, "unit": "µg/mL"},
      {"measurement": "MIC", "setting": "[11]", "result": 32, "unit": "µg/mL"},
      {"measurement": "MIC", "setting": "[12]", "result": 2, "unit": "µg/mL"},
      {"measurement": "MIC", "setting": "[13]", "result": 2, "unit": "µg/mL"}
    ]}
  ]
}
